For this assay, the system named is 429239-143-T-J1-PDC complex spheroid viability. The assay can be described thus: Anticancer human tumor 429239-143-T-J1-PDC patient-derived small cell lung carcinoma cell line growth inhibition [POLQ]. Conditions: for viability, T/C: stronger effect = lower value. The procedure: Multicellular complex tumor spheroid response to Polymerase (POL) inhibitors (novobiocin, ART-558, RP6685) in combination with a variety of drugs and investigational agents in selected tumor cell lines
The POL inhibitors (novobiocin, ART-558, and RP6685) were evaluated both individually and in combination with standard of care and investigational anticancer small molecules within a complex spheroid model of solid tumors. . Complex spheroids include a stromal component modeled by human endothelial cells (HUVEC) and fibroblasts modeled by human mesenchymal stem cells (MSCs). The concentration ranges selected for each drug and investigational agent were based upon clinically achievable concentrations if the clinical Cmax of the agent was known.
Compounds. The drugs and investigational agents: novobiocin (NSC847541), ART-558 (NSC835418), RP-6685 (NSC848927), peposertib (NSC802822), ceralasertib (NSC780249), elimusertib (NSC800525), camonsertib (NSC841442), AZD-1390 (NSC803789), olaparib (NSC753686), talazoparib (NSC767125), rucaparib (NSC756644), sotorasib (NSC818433), MRTX-1133 (NSC836407), SN-38 (NSC673596), topotecan (NSC609699), epotoside (NSC141540), doxorubicin (NSC123127), gemcitabine (NSC613327), 5-fluorouracil (NSC19893), paclitaxel (NSC125973), vemurafenib (NSC761431), MSA-2 (NSC828583), SN-011 (NSC837082), adavosertib (NSC754352), prexasertib (NSC758257), carboplatin (NSC241240) and oxaliplatin (NSC266046), were obtained from the National Cancer Institute (NCI) Developmental Therapeutics Program Chemical Repository (21). The FDA-approved anticancer drug set is available from the Developmental Therapeutics Program at https://dtp.cancer.gov/organization/dscb/obtaining/. […] The stock solutions were prepared in dimethyl sulfoxide (DMSO, Sigma-Aldrich, St. Louis, MO, cat. D2650), except for the platinum compounds which were prepared in saline (Quality Biological, Gaithersburg, MD, cat. 114-055-101), at 800-fold the tested concentration and stored at -70 degrees C prior to their use. All drugs and investigational agents were tested over a range starting from a high concentration at or near the clinical Cmax and decreasing in half-log increments. If the clinical Cmax for an agent had not been determined, the highest concentration tested was 10 microM, except for SN-38, which was tested at a high concentration of 1 microM.
Cell Culture. All cells were maintained in an incubator at 37 degrees C and 5% CO2 with 95% humidity. The PDC lines were cultured according to standard operating procedures established by the NCI PDMR (https://pdmr.cancer.gov). Table 3 of the manuscript, lists the cell lines along with the number of the three cell types plated to form the mct-spheroids and media for tumor cell growth. After thawing, all PDC lines, except 997537-175-T-J1-PDC and 415267-285-R-J2-PDC, were cultured in Matrigel-coated flasks prepared with a working solution of 1X Ham's F-12 nutrient mix, without supplementation (Thermo Fisher Scientific, cat. 11765054), 100 U/mL penicillin-streptomycin (Thermo Fisher Scientific, cat. 15140122), and 2.5% Matrigel (Corning Inc., Corning, NY, cat. 354248) for the first three passages. The two PDC lines 997537-175-T-J1-PDC and 415267-285-R-J2-PDC were cultured on uncoated flasks. The 857933-349-R-J2-PDC line was cultured in 6C/Colon 1B media containing advanced DMEM/F-12 (Thermo Fisher Scientific, cat. 12634028), 10 mM HEPES (Thermo Fisher Scientific, cat. 15630080), 1X GlutaMAX supplement (Thermo Fisher Scientific, cat. 35050061), 0.1 mg/mL primocin (InvivoGen, San Diego, CA, cat. ant-pm-2), 10% defined fetal bovine serum, heat inactivated (HyClone Laboratories Inc., Logan, UT, cat. SH30070.03HI), 50% L-WRN conditioned media (ATCC, cat. CRL-3276), 1.25 mM N-Acetyl-L-cysteine (Sigma-Aldrich, cat. A9165), 10 mM nicotinamide (Sigma-Aldrich, cat. N0636), 1X B-27 supplement (Thermo Fisher Scientific, cat. 17504044), 1X N-2 supplement (Thermo Fisher Scientific, cat. […]

“And” between values parts separate entries of the source, which are not always exact repeats. Identical values can stand only once.

The values that follow come from PubChem BioAssay AID1963845 (Molecular Pharmacology Branch, DTP, NCI, 2024).
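Also: luminescence signal used as surrogate measure of viable cells; spheroids exposed to compounds for seven days before readout.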
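For viability, T/C in this document: 100% = DMSO vehicle control viability as luminescence relative to vehicle.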

As for `CC1COCCN1c1cc(C2(S(C)(=N)=O)CC2)nc(-c2ccnc3[nH]ccc23)n1` (stereo not drawn), the viability, T/C was 106% and 91.7% and 104% (compound 0.0316 µM); 99.9% and 108% and 91.8% (compound 0.1 µM); 94.5% and 93.5% and 97.2% (compound 0.316 µM); 70.8% and 83.8% and 71.7% (compound 1 µM); 41.6% and 77.8% and 42.5% (compound 3.16 µM); 16.7% and 45.8% and 16.9% (compound 10 µM). The IC50 (curve of compound) was 2270 nM and 8700 nM and 2350 nM.

As to `C=CCn1c(=O)c2cnc(Nc3ccc(N4CCN(C)CC4)cc3)nc2n1-c1cccc(C(C)(C)O)n1`, the viability, T/C is 99.5% and 101% and 95.1% (compound 0.00316 µM); 103% and 107% and 104% (compound 0.01 µM); 89.4% and 120% and 103% (compound 0.0316 µM); 82.4% and 97.7% and 98.2% (compound 0.1 µM); 91.7% and 94% and 88.9% (compound 0.316 µM); 17.4% and 20% and 18.9% (compound 1 µM). Also, under “curve of compound”, the IC50 is 603 nM and 621 nM and 600 nM.

`COc1cccc2c1C(=O)c1c(O)c3c(c(O)c1C2=O)CC(O)(C(=O)CO)CC3OC1CC(N)C(O)C(C)O1` (stereo not drawn): the viability, T/C runs as follows: (compound 0.0316 µM) 64.3% and 87.3% and 71.1%; (compound 0.1 µM) 12.8% and 42.3% and 14.2%; (compound 0.316 µM) 11.6% and 7.66% and 13.1%; (compound 1 µM) 0.3% and 0.77% and 0.76%; (compound 3.16 µM) 0.21% and 0.16% and 0.18%; (compound 10 µM) 0.24% and 0.16% and 0.14%. The IC50 (curve of compound) is 44.1 nM and 82.1 nM and 49.7 nM.

Regarding `Cn1ncnc1[C@H]1c2n[nH]c(=O)c3cc(F)cc(c23)N[C@@H]1c1ccc(F)cc1` + Cc1cccc(N(C)C(=O)C2C(O)CCN2c2nc(C)cc(C(F)(F)F)c2C#N)c1, the IC50 (curve of first compound, second compound 0.0316 µM) is 19.8 nM; the IC50 (curve of first compound, second compound 0.1 µM) was 19 nM; the IC50 (curve of first compound, second compound 0.316 µM) came out at 24.6 nM; the IC50 (curve of first compound, second compound 1 µM) is 19.3 nM; the IC50 (curve of first compound, second compound 3.16 µM) was found to be 27 nM; the concentration for half-maximal inhibition (IC50) (curve of first compound, second compound 10 µM) was 11.5 nM. The viability, T/C is 107% (second compound 0.0316 µM, first compound 0.000316 µM); 107% (second compound 0.0316 µM, first compound 0.001 µM); 88.4% (second compound 0.0316 µM, first compound 0.00316 µM); 62.4% (second compound 0.0316 µM, first compound 0.01 µM); 42.7% (second compound 0.0316 µM, first compound 0.0316 µM); 29.6% (second compound 0.0316 µM, first compound 0.1 µM). The viability, T/C is 87.6% (second compound 0.1 µM, first compound 0.000316 µM); 98.4% (second compound 0.1 µM, first compound 0.001 µM); 78.1% (second compound 0.1 µM, first compound 0.00316 µM); 65.9% (second compound 0.1 µM, first compound 0.01 µM); 34.7% (second compound 0.1 µM, first compound 0.0316 µM); 39.8% (second compound 0.1 µM, first compound 0.1 µM). The viability, T/C runs as follows: (second compound 0.316 µM, first compound 0.000316 µM) 93.5%; (second compound 0.316 µM, first compound 0.001 µM) 86.2%; (second compound 0.316 µM, first compound 0.00316 µM) 73.3%; (second compound 0.316 µM, first compound 0.01 µM) 65.7%; (second compound 0.316 µM, first compound 0.0316 µM) 44.7%; (second compound 0.316 µM, first compound 0.1 µM) 29.2%. In addition, the viability, T/C is, setting by setting: (second compound 1 µM, first compound 0.000316 µM) 97.1%; (second compound 1 µM, first compound 0.001 µM) 98.7%; (second compound 1 µM, first compound 0.00316 µM) 74.6%; (second compound 1 µM, first compound 0.01 µM) 57.8%; (second compound 1 µM, first compound 0.0316 µM) 47.1%; (second compound 1 µM, first compound 0.1 µM) 31.8%. Besides, the viability, T/C (second compound 3.16 µM, first compound 0.000316 µM) is 95.8%; the viability, T/C (second compound 3.16 µM, first compound 0.001 µM) is 83%; the viability, T/C (second compound 3.16 µM, first compound 0.00316 µM) is 84.4%; the viability, T/C (second compound 3.16 µM, first compound 0.01 µM) is 60.5%; the viability, T/C (second compound 3.16 µM, first compound 0.0316 µM) is 49.1%; the viability, T/C (second compound 3.16 µM, first compound 0.1 µM) is 30.2%. For the same compound, the viability, T/C (second compound 10 µM, first compound 0.000316 µM) is 91.8%; the viability, T/C (second compound 10 µM, first compound 0.001 µM) was 86.1%; the viability, T/C (second compound 10 µM, first compound 0.00316 µM) is 98.5%; the viability, T/C (second compound 10 µM, first compound 0.01 µM) was 51.8%; the viability, T/C (second compound 10 µM, first compound 0.0316 µM) was 41.2%; the viability, T/C (second compound 10 µM, first compound 0.1 µM) was 32%.

With `CCc1cc2c(N3CCc4c(cc(Cn5ccnc5)cc4-c4cn(C)nc4C(F)(F)F)C3=O)cc(C)nc2c(OC)n1`, the viability, T/C runs as follows: (compound 0.0316 µM) 97.3% and 95.1% and 89.2%; (compound 0.1 µM) 77.4% and 91.2% and 89.8%; (compound 0.316 µM) 63.9% and 85.3% and 90%; (compound 1 µM) 48% and 81.4% and 78.2%; (compound 3.16 µM) 42.7% and 76.8% and 69.8%; (compound 10 µM) 38.6% and 45.6% and 43.8%. Moreover, the IC50 (curve of compound) is 977 nM and 8650 nM and 7620 nM.

For the compound `CC(=O)O[C@H]1C(=O)[C@@]2(C)[C@H]([C@H](OC(=O)c3ccccc3)[C@]3(O)C[C@H](OC(=O)[C@H](O)[C@@H](NC(=O)c4ccccc4)c4ccccc4)C(C)=C1C3(C)C)[C@]1(OC(C)=O)CO[C@@H]1C[C@@H]2O`, the viability, T/C is 62.4% and 68.4% and 14% (compound 0.00949 µM); 18.6% and 19.8% and 13.2% (compound 0.03 µM); 14.8% and 17.6% and 11.4% (compound 0.0949 µM); 19.5% and 16.1% and 12.9% (compound 0.3 µM); 19.7% and 25.1% and 11.1% (compound 0.949 µM); 29.5% and 28.1% and 14% (compound 3 µM). Besides, the half-maximal inhibitory concentration (IC50) (curve of compound) was 13.4 nM and 14.9 nM and < 9.49 nM.

With `Nc1ccc(C#CCN(C(=O)Cc2ncc(C(F)(F)F)cc2C(F)(F)F)c2ccc(F)cc2)nn1`, the viability, T/C (compound 0.0316 µM) is 100% [middle of 13 runs]; the viability, T/C (compound 0.1 µM) is 103% [middle of 13 runs]; the viability, T/C (compound 0.316 µM) was 99.6% [middle of 13 runs]; the viability, T/C (compound 1 µM) is 101% [middle of 13 runs]; the viability, T/C (compound 10 µM) was 107% [middle of 13 runs]. The IC50 (compound alone, run of 01/19/2024) was more than 10000 nM.
